Results as given in patent publication US20120245176A1, “NOVEL […] WITH S[…] AS BROAD-[…] INFLUENZA ANTIVIRALS” (priority 2010, published 2012).
Where two headings read alike, the source gives them in different places.

Experiments:
[1] = test system: A/H5N1/Gull_PA; experiment: microbe, parasite or virus in culture; type: cell-based, influenza virus; details: read-out: A/H5N1/Gull_PA EC50
[2] = test system: A/H1N1/WSN; experiment: Antiviral assay in MDCK cells, viral neuraminidase (MUNANA) readout, A/H1N1/WSN; type: cell-based, influenza A; details: MOI 0.001, 48 hrs post infection, viral NA activity
[3] = test system: A/H1N1/Solomon Islands; experiment: Antiviral assay in MDCK cells, viral neuraminidase (MUNANA) readout, A/H1N1/Solomon Islands; type: cell-based, influenza A; details: viral NA activity
[4] = test system: A/H5N1/Duck_PA; experiment: microbe, parasite or virus in culture; type: cell-based, influenza virus; details: read-out: A/H5N1/Duck_PA EC50
[5] = test system: A/H5N1/Duck_MN; experiment: microbe, parasite or virus in culture; type: cell-based, influenza virus; details: read-out: A/H5N1/Duck_MN EC50
[6] = test system: A/H3N2 Brisbane; experiment: Antiviral assay in MDCK cells, viral neuraminidase (MUNANA) readout, A/H3N2 Brisbane; type: cell-based, influenza A; details: viral NA activity
[7] = Human Liver Microsomal Stability; details: human liver microsomes
[8] = Mouse Liver Microsomal Stability; details: mouse liver microsomes
[9] = MOI 0.001, 48 hrs post infection
[10] = Influenza A virus, H5N1, MDCK, 48 h
[11] = Influenza A virus, H1N1, MOI 0.001, 48 hrs post infection
[12] = Influenza A virus, H3N2, MOI 0.001, 48 hrs post infection

SMILES	EC50 [1]	EC50 [2]	EC50 [3, 9]	EC50 [4]	EC50 [5]	EC50 [6, 9]	Human Liver Microsomal Stability (% Remaining after 10 minutes) [7]	Mouse Liver Microsomal Stability (% Remaining after 10 minutes) [8]	further results
COc1ccccc1-c1noc(C)c1C(=O)N1CCN(c2ccc([N+](=O)[O-])cc2Cl)CC1 [Example 18]	< 0.1 µM	< 0.1 µM	< 1 µM	< 1 µM	< 1 µM	< 10 µM	–	–	–
COc1ncccc1-c1noc(C)c1C(=O)N1CCN(c2ccc([N+](=O)[O-])cc2Cl)CC1 [Example 45]	–	–	–	–	–	–	56%	33%	–
COc1ccccc1-c1noc(C)c1C(=O)N1CCN(c2ncc(Cl)cc2Br)CC1 [Example 129]	< 1 µM	< 1 µM	< 10 µM	< 10 µM	< 10 µM	< 10 µM	–	–	–
Cc1onc(-c2ccccc2)c1C(=O)N1CCN(c2ccc([N+](=O)[O-])cc2Cl)CC1 [reference compound]	–	–	–	–	–	–	40%	20%	–
Cc1onc(-c2cccc(Cl)c2)c1C(=O)N1CCN(c2ccc([N+](=O)[O-])cc2Cl)CC1 [Example 28]	–	–	–	–	–	–	94%	85%	–
COc1ccccc1-c1n[nH]c(C)c1C(=O)N1CCN(c2ccc([N+](=O)[O-])cc2Cl)CC1 [Example 80]	< 1 µM	< 10 µM	< 10 µM	< 10 µM	< 10 µM	> 10 µM	72%	65%	–
COc1ccccc1-c1ncn(C)c1C(=O)N1CCN(c2ccc([N+](=O)[O-])cc2Cl)CC1 [Example 82]	< 1 µM	< 1 µM	> 10 µM	< 10 µM	< 10 µM	> 10 µM	45%	43%	–
COc1cc(F)ccc1-c1noc(C)c1C(=O)N1CCN(c2ccc([N+](=O)[O-])cc2Cl)CC1 [Example 29]	–	–	–	–	–	–	68%	28%	–
COc1ccc2ccccc2c1-c1noc(C)c1C(=O)N1CCN(c2ccc([N+](=O)[O-])cc2Cl)CC1 [Example 63]	< 0.1 µM	< 0.1 µM	< 1 µM	< 1 µM	< 1 µM	> 10 µM	–	–	–
COc1ccc(-c2noc(C)c2C(=O)N2CCN(c3ccc([N+](=O)[O-])cc3Cl)CC2)c(Cl)c1 [Example 31]	< 0.1 µM	< 0.1 µM	< 1 µM	< 1 µM	< 1 µM	> 10 µM	–	–	–
Cc1cc(Br)cnc1N1CCN(C(=O)c2c(-c3ccccc3Cl)noc2C)CC1 [Example 132, (4-(5-bromo-3-methylpyridin-2-yl)piperazin-1-yl)(3-(2-chlorophenyl)-5-methylisoxazol-4-yl)methanone]	–	–	–	–	–	–	–	–	EC50 [1, 10]: > 10 µM; EC50 ([2]; Influenza A virus): < 1 µM; EC50 [3, 11]: < 10 µM; EC50 [4, 10]: > 10 µM; EC50 [5, 10]: > 10 µM; EC50 [6, 12]: > 10 µM
Cc1onc(-c2cccnc2Cl)c1C(=O)N1CCN(c2ccc([N+](=O)[O-])cc2Cl)CC1 [Example 61]	< 1 µM	< 0.1 µM	< 10 µM	< 1 µM	< 1 µM	> 10 µM	50%	18%	–
Cc1[nH]nc(-c2ccccc2Cl)c1C(=O)N1CCN(c2ccc([N+](=O)[O-])cc2Cl)CC1 [Example 72]	< 1 µM	< 1 µM	> 10 µM	< 10 µM	< 10 µM	> 10 µM	78%	61%	–
Cc1onc(-c2ccccc2Cl)c1C(=O)N1CCN(c2ccc([N+](=O)[O-])cc2F)CC1 [Example 4]	–	–	–	–	–	–	72%	86%	–
COc1ccccc1-c1n[nH]c(C)c1C(=O)N1CCN(c2ncc([N+](=O)[O-])cc2Cl)CC1 [Example 83]	–	–	–	–	–	–	52%	16%	–
Cc1onc(-c2ccccc2C(N)=O)c1C(=O)N1CCN(c2ccc([N+](=O)[O-])cc2Cl)CC1 [Example 155, 2-(4-(4-(2-chloro-4-nitrophenyl)piperazine-1-carbonyl)-5-methylisoxazol-3-yl)benzamide]	–	–	–	–	–	–	80%	61%	–
COc1ccc(NC(C)=O)cc1-c1noc(C)c1C(=O)N1CCN(c2ccc([N+](=O)[O-])cc2Cl)CC1 [Example 165]	< 1 µM	< 1 µM	< 1 µM	< 10 µM	< 10 µM	> 10 µM	–	–	–
Cc1c[nH]c(-c2ccccc2Cl)c1C(=O)N1CCN(c2ccc([N+](=O)[O-])cc2Cl)CC1 [Example 75, (4-(2-chloro-4-nitrophenyl)piperazin-1-yl)(2-(2-chlorophenyl)-4-methyl-1H-pyrrol-3-yl)methanone]	–	–	–	–	–	–	–	–	EC50 [1, 10]: < 0.1 µM; EC50 ([2]; Influenza A virus): < 0.1 µM; EC50 [3, 11]: < 10 µM; EC50 [4, 10]: < 1 µM; EC50 [5, 10]: < 1 µM; EC50 [6, 12]: > 10 µM
COc1ccc(N)cc1-c1noc(C)c1C(=O)N1CCN(c2ncc(Cl)cc2Cl)CC1 [Example 159, (3-(5-amino-2-methoxyphenyl)-5-methylisoxazol-4-yl)(4-(3,5-dichloropyridin-2-yl)piperazin-1-yl)methanone]	–	–	–	–	–	–	62%	36%	–
Cc1nnn(-c2ccccc2Cl)c1C(=O)N1CCN(c2ccc([N+](=O)[O-])cc2Cl)CC1 [Example 88]	< 1 µM	< 1 µM	< 10 µM	< 10 µM	< 10 µM	> 10 µM	47%	23%	–
Cc1c[nH]c(-c2ccccc2Cl)c1C(=O)N1CCN(c2ncc(Cl)cc2Cl)CC1 [Example 133]	< 10 µM	< 1 µM	< 10 µM	> 10 µM	> 10 µM	< 10 µM	–	–	–
Cc1onc(-c2ccccc2O)c1C(=O)N1CCN(c2ncc(Cl)cc2Cl)CC1 [Example 142, (4-(3,5-dichloropyridin-2-yl)piperazin-1-yl)(3-(2-hydroxyphenyl)-5-methylisoxazol-4-yl)methanone]	–	–	–	–	–	–	80%	34%	–
Cc1onc(-c2ccc(F)cc2)c1C(=O)N1CCN(c2ccc([N+](=O)[O-])cc2Cl)CC1 [Example 27]	–	–	–	–	–	–	66%	86%	–
Cc1cnn(-c2ccccc2Cl)c1C(=O)N1CCN(c2ccc([N+](=O)[O-])cc2Cl)CC1 [Example 77]	< 1 µM	< 1 µM	> 10 µM	< 10 µM	< 10 µM	> 10 µM	–	–	–
Cc1onc(-c2ccccc2Cl)c1C(=O)N1CCN(c2ccc([N+](=O)[O-])cc2Cl)CC1 [reference compound]	–	–	–	–	–	–	6%	0%	–
COc1ccc(NS(C)(=O)=O)cc1-c1noc(C)c1C(=O)N1CCN(c2ccc([N+](=O)[O-])cc2Cl)CC1 [Example 163]	–	–	–	–	–	–	75%	49%	–
COc1ccccc1-c1nnn(C)c1C(=O)N1CCN(c2ncc([N+](=O)[O-])cc2Cl)CC1 [Example 86]	< 1 µM	< 1 µM	< 10 µM	< 10 µM	< 10 µM	> 10 µM	–	–	–
COc1ccccc1-c1nnn(C)c1C(=O)N1CCN(c2ccc([N+](=O)[O-])cc2Cl)CC1 [Example 81]	< 0.1 µM	< 0.1 µM	< 10 µM	< 1 µM	< 1 µM	> 10 µM	73%	45%	–
COc1ccc(NS(C)(=O)=O)cc1-c1noc(C)c1C(=O)N1CCN(c2ncc(Cl)cc2Cl)CC1 [Example 161, N-(3-(4-(4-(3,5-dichloropyridin-2-yl)piperazine-1-carbonyl)-5-methylisoxazol-3-yl)-4-methoxyphenyl)methanesulfonamide]	–	–	–	–	–	–	70%	8%	–
